According to PubChem BioAssay AID328 (DTP/NCI, 2004):
Several values for one entry are separate records, joined by “and”; a condition that tells them apart may be missing. Equal entries are not always repeated. Inconclusive results and toxic doses are left out.

System: BDF1 mice, P388 leukemia ip, median survival T/C
Test: NCI In Vivo Anticancer Drug Screen. Data for tumor model P388 Leukemia (intraperitoneal) in B6D2F1 (BDF1) mice
Conditions: endpoint: median survival time, higher = longer survival
How it was run: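 Mice carrying the transplantable tumour receive compound or vehicle. Survival is followed in each arm, and the treated measure is divided by the vehicle measure.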

[1] = dose: 100.0 mg/kg/injection, schedule: Q01DX009 (ip), vehicle: saline
[2] = dose: 100.0 mg/kg/injection, schedule: Q04DX003 (ip), vehicle: saline
[3] = dose: 200.0 mg/kg/injection, schedule: Q01DX009 (ip), vehicle: saline
[4] = dose: 200.0 mg/kg/injection, schedule: Q04DX003 (ip), vehicle: saline
[5] = dose: 50.0 mg/kg/injection, schedule: Q04DX003 (ip), vehicle: water
[6] = dose: 100.0 mg/kg/injection, schedule: Q04DX003 (ip), vehicle: water
[7] = dose: 400.0 mg/kg/injection, schedule: Q04DX003 (ip), vehicle: water
[8] = dose: 100.0 mg/kg/injection, schedule: Q01DX009 (ip), vehicle: Klucel (hydroxypropylcellulose) (HPC)

In the case of C/C(=C\Br)CO, the T/C (dose: 50.0 mg/kg/injection, schedule: Q04DX003 (ip), vehicle: saline) is reported as 90 % of control, the T/C [1] is reported as 105 % of control and the T/C [2] is reported as 105 % of control. For the same molecule, the T/C [3] was 95 % of control and the T/C [4] was 90 % of control.

With c1ccc(-c2ccc(-c3cn4ccsc4n3)cc2)cc1 the T/C (dose: 100.0 mg/kg/injection, schedule: Q01DX001 (ip), vehicle: Klucel (hydroxypropylcellulose) (HPC)) was 101 % of control, the T/C (dose: 200.0 mg/kg/injection, schedule: Q01DX001 (ip), vehicle: Klucel (hydroxypropylcellulose) (HPC)) was 99 % of control and the T/C (dose: 400.0 mg/kg/injection, schedule: Q01DX001 (ip), vehicle: Klucel (hydroxypropylcellulose) (HPC)) was 100 % of control.

For CNC(=S)N/N=C(\C)c1ccccn1, the T/C (dose: 6.25 mg/kg/injection, schedule: Q01DX009 (ip), vehicle: saline with Tween-80) was 102 % of control, the T/C (dose: 12.5 mg/kg/injection, schedule: Q01DX009 (ip), vehicle: saline with Tween-80) was 121 % of control and the T/C (dose: 25.0 mg/kg/injection, schedule: Q01DX009 (ip), vehicle: saline with Tween-80) was 102 % of control.

COc1cccc(C(O)c2ccncc2)c1OC (stereo not drawn) was tested, and the T/C (dose: 25.0 mg/kg/injection, schedule: Q04DX003 (ip), vehicle: water) was 113 % of control, the T/C [5] was 108 % of control and the T/C [6] was 103 % of control. For the same molecule, the T/C (dose: 200.0 mg/kg/injection, schedule: Q04DX003 (ip), vehicle: water) was 90 % of control and the T/C [7] was 97 % of control.

For Cc1ccc2oc(-c3ccccc3)c(O)c(=O)c2c1, the T/C (dose: 100.0 mg/kg/injection, schedule: Q01DX009 (ip), vehicle: saline with Tween-80) was 95 % of control, the T/C (dose: 200.0 mg/kg/injection, schedule: Q01DX009 (ip), vehicle: saline with Tween-80) was 100 % of control and the T/C (dose: 400.0 mg/kg/injection, schedule: Q01DX009 (ip), vehicle: saline with Tween-80) was 90 % of control.

In the case of COc1cc2c[n+](C)c3c4cc(OC)c(OC)cc4ccc3c2cc1OC, the T/C (dose: 3.12 mg/kg/injection, schedule: Q01DX009 (ip), vehicle: water) is reported as 98 % of control, the T/C (dose: 6.25 mg/kg/injection, schedule: Q01DX009 (ip), vehicle: water) is reported as 112 % of control and the T/C (dose: 12.5 mg/kg/injection, schedule: Q01DX009 (ip), vehicle: water) is reported as 118 % of control. The T/C (dose: 25.0 mg/kg/injection, schedule: Q01DX009 (ip), vehicle: other) was 153 % of control, the T/C (dose: 25.0 mg/kg/injection, schedule: Q01DX009 (ip), vehicle: water) was 120 % of control and the T/C (dose: 34.0 mg/kg/injection, schedule: Q01DX009 (ip), vehicle: saline) was 159 % of control. For the same molecule, the T/C (dose: 50.0 mg/kg/injection, schedule: Q01DX009 (ip), vehicle: other) was 174 % of control, the T/C (dose: 50.0 mg/kg/injection, schedule: Q01DX009 (ip), vehicle: saline) was 188 % of control and the T/C (dose: 50.0 mg/kg/injection, schedule: Q01DX009 (ip), vehicle: water) was 100 % of control. For the same molecule, the T/C [5] was 103 % of control, the T/C (dose: 52.0 mg/kg/injection, schedule: Q01DX009 (ip), vehicle: saline) was 150 % of control and the T/C (dose: 80.0 mg/kg/injection, schedule: Q01DX009 (ip), vehicle: saline) was 165 % of control and 172 % of control. For the same molecule, the T/C [8] was 151 % of control, the T/C (dose: 100.0 mg/kg/injection, schedule: Q01DX009 (ip), vehicle: other) was 172 % of control and the T/C [1] was 200 % of control. For the same molecule, the T/C (dose: 100.0 mg/kg/injection, schedule: Q01DX009 (ip), vehicle: water) was 106 % of control, the T/C [2] was 113 % of control and the T/C [6] was 120 % of control. The T/C (dose: 120.0 mg/kg/injection, schedule: Q01DX009 (ip), vehicle: saline) was 155 % of control and 168 % of control, the T/C (dose: 180.0 mg/kg/injection, schedule: Q01DX009 (ip), vehicle: saline) was 159 % of control and the T/C [3] was 183 % of control. For the same molecule, the T/C [4] was 95 % of control, the T/C (dose: 240.0 mg/kg/injection, schedule: Q01DX009 (ip), vehicle: saline) was 90 % of control and the T/C (dose: 240.0 mg/kg/injection, schedule: Q04DX003 (ip), vehicle: saline) was 150 % of control. For the same molecule, the T/C [7] was 92 % of control and the T/C (dose: 600.0 mg/kg/injection, schedule: Q04DX003 (ip), vehicle: saline) was 100 % of control.

N#Cc1ccc(/C=C/C(=O)c2ccccc2)cc1 was tested, and the T/C [8] was 91 % of control, the T/C (dose: 200.0 mg/kg/injection, schedule: Q01DX009 (ip), vehicle: Klucel (hydroxypropylcellulose) (HPC)) was 116 % of control and the T/C (dose: 400.0 mg/kg/injection, schedule: Q01DX009 (ip), vehicle: Klucel (hydroxypropylcellulose) (HPC)) was 107 % of control.
